Laboratory results published in patent US8552002B2 (Novartis AG, priority 2004, dated 2013).
Structures can show the parent of a compound that is named as a salt.

Columns and labels:
Format in all cases: biochemical
[1] = biological target: T1, Tek (Homo sapiens, UniProt Q02763); assay: Recombinant GST-Tek (Tie-2) tyrosine kinase assay (33P into poly(Glu,Tyr)); conditions: Examples 1 to 169
T1 construct: amino acids 773-1124 of the cytoplasmic kinase domain of human Tek, N-terminally fused to GST; made in house; host or cells: Sf9 insect cells (baculovirus)
T1 sequence (Q02763 773-1124): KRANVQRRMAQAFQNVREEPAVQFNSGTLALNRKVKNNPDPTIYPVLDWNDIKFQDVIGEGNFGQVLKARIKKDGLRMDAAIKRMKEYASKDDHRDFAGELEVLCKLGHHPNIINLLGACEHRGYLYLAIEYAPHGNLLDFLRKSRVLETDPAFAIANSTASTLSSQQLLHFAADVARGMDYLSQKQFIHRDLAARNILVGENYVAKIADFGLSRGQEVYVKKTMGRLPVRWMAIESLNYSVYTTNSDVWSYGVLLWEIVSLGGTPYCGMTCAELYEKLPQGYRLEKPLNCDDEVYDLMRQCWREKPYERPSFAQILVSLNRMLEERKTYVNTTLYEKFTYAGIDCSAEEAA
Outline: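 Read-out is filter-bound 33P in poly(Glu,Tyr) 4:1 (10 μg/mL) after 30 min at ambient temperature with 4.0 μM ATP. Enzyme: 150 ng human GST-Tek (aa 773-1124) from insect cells, in Tris pH 7.5 with Mn2+/Mg2+ and vanadate. IC50 fitted linearly over four concentrations, usually 0.01-10 μM.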

[2] = biological target: T2, KDR (Homo sapiens, UniProt P35968); assay: Inhibitory activity against KDR (VEGF-R2), in vitro data of Examples 170 and 207; conditions: 10 μM; Examples 1 to 169; read-out: KDR inhibition at 10 μM
T2 construct: expressed in transfected cells; host or cells: CHO cells
T2 sequence (P35968 20-1356): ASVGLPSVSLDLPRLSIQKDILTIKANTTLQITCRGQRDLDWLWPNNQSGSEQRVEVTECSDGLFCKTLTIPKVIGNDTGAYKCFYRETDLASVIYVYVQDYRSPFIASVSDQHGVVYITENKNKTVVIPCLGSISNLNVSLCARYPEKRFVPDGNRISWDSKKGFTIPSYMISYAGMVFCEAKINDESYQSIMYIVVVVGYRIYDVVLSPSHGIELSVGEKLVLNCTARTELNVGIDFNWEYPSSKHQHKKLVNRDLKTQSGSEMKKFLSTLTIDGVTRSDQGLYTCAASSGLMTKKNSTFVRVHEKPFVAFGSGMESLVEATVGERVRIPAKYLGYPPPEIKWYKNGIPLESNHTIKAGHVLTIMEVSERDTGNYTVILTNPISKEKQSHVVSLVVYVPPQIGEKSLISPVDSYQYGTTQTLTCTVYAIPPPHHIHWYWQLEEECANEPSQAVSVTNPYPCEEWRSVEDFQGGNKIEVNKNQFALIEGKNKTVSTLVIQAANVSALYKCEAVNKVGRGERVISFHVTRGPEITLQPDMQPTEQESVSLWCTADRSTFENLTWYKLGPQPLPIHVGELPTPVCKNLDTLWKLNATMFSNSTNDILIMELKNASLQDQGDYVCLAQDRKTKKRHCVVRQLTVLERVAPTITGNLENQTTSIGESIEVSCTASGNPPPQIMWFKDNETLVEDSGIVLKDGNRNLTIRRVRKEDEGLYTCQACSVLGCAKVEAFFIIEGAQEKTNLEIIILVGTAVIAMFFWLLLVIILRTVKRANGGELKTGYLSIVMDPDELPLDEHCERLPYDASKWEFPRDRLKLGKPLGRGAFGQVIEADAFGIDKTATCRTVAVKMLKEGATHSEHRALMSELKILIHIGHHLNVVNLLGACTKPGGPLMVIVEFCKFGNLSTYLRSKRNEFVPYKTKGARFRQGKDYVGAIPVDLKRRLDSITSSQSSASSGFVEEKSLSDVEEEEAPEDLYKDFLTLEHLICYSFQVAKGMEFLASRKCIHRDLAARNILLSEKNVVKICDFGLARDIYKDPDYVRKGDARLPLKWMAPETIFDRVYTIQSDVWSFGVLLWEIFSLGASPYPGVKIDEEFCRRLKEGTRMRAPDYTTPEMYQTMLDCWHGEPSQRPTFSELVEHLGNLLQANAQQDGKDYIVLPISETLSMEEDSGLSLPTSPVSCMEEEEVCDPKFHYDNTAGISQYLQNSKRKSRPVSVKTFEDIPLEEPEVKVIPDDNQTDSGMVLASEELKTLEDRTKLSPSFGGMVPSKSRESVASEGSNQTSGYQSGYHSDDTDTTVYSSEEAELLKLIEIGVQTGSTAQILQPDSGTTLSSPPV
Outline: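 KDR tyrosine phosphorylation detected by luminescence after overnight 4° C capture of 20 μg lysate protein with PY20:AP antibody. Lysates came from cells given compound for 2 h at 37° C, then final 20 ng/ml VEGF for 5 min; compound-free medium as control.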

[3] = biological target: T3, FGFR3 (K650E) (Homo sapiens, UniProt P22607, K650E); assay: Recombinant GST-FGFR-3-K650E tyrosine kinase assay (33P into poly(Glu,Tyr)); conditions: 10 μM; Examples 1 to 169; read-out: FGFR3 (K650E) inhibition at 10 μM
T3 construct: amino acids 411-806 of the cytoplasmic domain of human FGFR-3, N-terminally fused to GST; made in house; host or cells: Sf9 insect cells (baculovirus)
T3 sequence (P22607 411-806 K650E): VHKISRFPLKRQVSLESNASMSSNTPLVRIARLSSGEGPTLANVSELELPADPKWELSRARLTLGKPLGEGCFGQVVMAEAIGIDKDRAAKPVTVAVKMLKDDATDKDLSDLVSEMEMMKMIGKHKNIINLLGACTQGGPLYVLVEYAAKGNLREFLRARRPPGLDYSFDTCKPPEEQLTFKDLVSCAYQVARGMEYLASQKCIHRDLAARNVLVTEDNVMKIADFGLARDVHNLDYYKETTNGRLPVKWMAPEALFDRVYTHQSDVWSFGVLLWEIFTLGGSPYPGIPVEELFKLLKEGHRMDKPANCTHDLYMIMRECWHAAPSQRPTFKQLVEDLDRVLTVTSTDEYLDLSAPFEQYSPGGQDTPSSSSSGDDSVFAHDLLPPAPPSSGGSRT

Row | Compound | inhibition at 10 µM [1] | inhibition at 10 µM [2] | inhibition at 10 µM [3]
1 | CCN(CC)CCCOc1ccc(Nc2cc(NC(=O)Nc3ccccc3Cl)ncn2)cc1 [Example 102, 1-(2-Chloro-phenyl)-3-{6-[4-(3-diethylamino-propoxy)-phenylamino]-pyrimidin-4-yl}-urea] | 12 to 100% | 67 to 100% | 27 to 100%
2 | CCN(CC)CCCOc1ccc(Nc2cc(NC(=O)Nc3c(Cl)cccc3Cl)ncn2)cc1 [Example 103, 1-(2,6-Dichloro-phenyl)-3-{6-[4-(3-diethylamino-propoxy)-phenylamino]-pyrimidin-4-yl}-urea] | 12 to 100% | 67 to 100% | 27 to 100%
3 | CCN(CC)CCCOc1ccc(Nc2cc(NC(=O)Nc3ccccc3Br)ncn2)cc1 [Example 104, 1-(2-Bromo-phenyl)-3-{6-[4-(3-diethylamino-propoxy)-phenylamino]-pyrimidin-4-yl}-urea] | 12 to 100% | 67 to 100% | 27 to 100%
4 | CCN(CC)c1ccc(Nc2cc(NC(=O)Nc3c(F)cccc3F)ncn2)cc1 [Example 105, 1-[6-(4-Diethylamino-phenylamino)-pyrimidin-4-yl]-3-(2,6-difluoro-phenyl)-urea] | 12 to 100% | 67 to 100% | 27 to 100%
5 | CN(C)c1cccc(Nc2cc(NC(=O)Nc3c(F)cccc3F)ncn2)c1 [Example 106, 1-(2,6-Difluoro-phenyl)-3-[6-(3-dimethylamino-phenylamino)-pyrimidin-4-yl]-urea] | 12 to 100% | 67 to 100% | 27 to 100%
6 | CCN(CC)c1ccc(Nc2cc(NC(=O)Nc3c(Cl)cccc3Cl)ncn2)cc1 [Example 107, 1-(2,6-Dichloro-phenyl)-3-[6-(4-diethylamino-phenylamino)-pyrimidin-4-yl]-urea] | 12 to 100% | 67 to 100% | 27 to 100%
7 | O=C(Nc1cc(Nc2ccc(N3CCOCC3)cc2)ncn1)Nc1c(Cl)cccc1Cl [Example 108, 1-(2,6-Dichloro-Phenyl)-3-[6-(4-morpholin-4-yl-phenylamino)-pyrimidin-4-yl]-urea] | 12 to 100% | 67 to 100% | 27 to 100%
8 | O=C(Nc1cc(Nc2ccc(N3CCOCC3)cc2)ncn1)Nc1c(F)cccc1F [Example 109, 1-(2,6-Difluoro-phenyl)-3-[6-(4-morpholin-4-yl-phenylamino)-pyrimidin-4-yl]-urea] | 12 to 100% | 67 to 100% | 27 to 100%
9 | CCN(CC)c1ccc(Nc2cc(N(C)C(=O)Nc3c(Cl)cccc3Cl)ncn2)cc1 [Example 110, 3-(2,6-Dichloro-phenyl)-1-[6-(4-diethylamino-phenylamino)-pyrimidin-4-yl]-1-methyl-urea] | 12 to 100% | 67 to 100% | 27 to 100%
10 | CN(C(=O)Nc1c(Cl)cccc1Cl)c1cc(Nc2ccc(C(C)(C)O)cc2)ncn1 [Example 111, 3-(2,6-Dichloro-Phenyl)-1-{6-[4-(1-hydroxy-1-methyl-ethyl)-phenylamino]-pyrimidin-4-yl}-1-methyl-urea] | 12 to 100% | 67 to 100% | 27 to 100%
11 | COc1ccc(Nc2cc(NC(=O)Nc3c(Cl)cccc3Cl)ncn2)cn1 [Example 112, 1-(2,6-Dichloro-phenyl)-3-[6-(6-methoxy-pyridin-3-ylamino)-pyrimidin-4-yl]-urea] | 12 to 100% | 67 to 100% | 27 to 100%
12 | CN(C(=O)Nc1c(Cl)cccc1Cl)c1cc(Nc2cccc(C(F)(F)F)c2)ncn1 [Example 113, 3-(2,6-Dichloro-phenyl)-1-methyl-1-[6-(3-trifluoromethyl-phenylamino)-pyrimidin-4-yl]-urea] | 12 to 100% | 67 to 100% | 27 to 100%
13 | CN(C(=O)Nc1c(Cl)cccc1Cl)c1cc(Nc2cccc(C#N)c2)ncn1 [Example 114, 1-[6-(3-Cyano-phenylamino)-pyrimidin-4-yl]-3-(2,6-dichloro-phenyl)-1-methyl-urea] | 12 to 100% | 67 to 100% | 27 to 100%
14 | O=C(Nc1cc(Nc2ccc(F)cc2)ncn1)Nc1c(Cl)cccc1Cl [Example 115, 1-(2,6-Dichloro-phenyl)-3-[6-(4-fluoro-phenylamino)-pyrimidin-4-yl]-urea] | 12 to 100% | 67 to 100% | 27 to 100%
15 | COc1ccc(NC(=O)N(C)c2cc(Nc3ccc(F)cc3)ncn2)cc1 [Example 116, 1-[6-(4-Fluoro-Phenylamino)-pyrimidin-4-yl]-3-(4-methoxy-phenyl)-1-methyl-urea] | 12 to 100% | 67 to 100% | 27 to 100%
16 | CN(C(=O)Nc1c(Cl)cccc1Cl)c1cc(Nc2ccc(N3CCOCC3)cc2)ncn1 [Example 117, 3-(2,6-Dichloro-phenyl)-1-methyl-1-[6-(4-morpholin-4-yl-phenylamino)-pyrimidin-4-yl]-urea] | 12 to 100% | 67 to 100% | 27 to 100%
17 | CN(C(=O)Nc1c(Cl)cccc1Cl)c1cc(Nc2ccc(F)cc2F)ncn1 [Example 118, 3-(2,6-Dichloro-phenyl)-1-[6-(2,4-difluoro-phenylamino)-pyrimidin-4-yl]-1-methyl-urea] | 12 to 100% | 67 to 100% | 27 to 100%
18 | CN(C)c1cccc(Nc2cc(NC(=O)Nc3c(Cl)cccc3Cl)ncn2)c1 [Example 119, 1-(2,6-Dichloro-phenyl)-3-[6-(3-dimethylamino-phenylamino)-pyrimidin-4-yl]-urea] | 12 to 100% | 67 to 100% | 27 to 100%
19 | CN(C)c1cccc(Nc2cc(N(C)C(=O)Nc3c(Cl)cccc3Cl)ncn2)c1 [Example 120, 3-(2,6-Dichloro-phenyl)-1-[6-(3-dimethylamino-phenylamino)-pyrimidin-4-yl]-1-methyl-urea] | 12 to 100% | 67 to 100% | 27 to 100%
20 | CN(C(=O)Nc1cccc(C(F)(F)F)c1)c1cc(Nc2ccc(F)cc2)ncn1 [Example 121, 1-[6-(4-Fluoro-phenylamino)-pyrimidin-4-yl]-1-methyl-3-(3-trifluoro-methyl-phenyl)-urea] | 12 to 100% | 67 to 100% | 27 to 100%
21 | CN(C(=O)Nc1cccc(Cl)c1)c1cc(Nc2ccc(F)cc2)ncn1 [Example 122, 3-(3-Chloro-Phenyl)-1-[6-(4-fluoro-phenylamino)-pyrimidin-4-yl]-1-methyl-urea] | 12 to 100% | 67 to 100% | 27 to 100%
22 | CN(C(=O)Nc1c(Cl)cccc1Cl)c1cc(Nc2ccc(F)cc2)ncn1 [Example 123, 3-(2,6-Dichloro-phenyl)-1-[6-(4-fluoro-phenylamino)-pyrimidin-4-yl]-1-methyl-urea] | 12 to 100% | 67 to 100% | 27 to 100%
23 | CN(C(=O)Nc1c(Cl)cccc1Cl)c1cc(Nc2cccc(Cl)c2)ncn1 [Example 124, 1-[6-(3-Chloro-phenylamino)-pyrimidin-4-yl]-3-(2,6-dichloro-phenyl)-1-methyl-urea] | 12 to 100% | 67 to 100% | 27 to 100%
24 | O=C(Nc1cc(Nc2ccc(OCCCN3CCOCC3)cc2)ncn1)Nc1ccccc1Cl [Example 125, 1-(2-Chloro-Phenyl)-3-{6-[4-(3-morpholin-4-yl-propoxy)-phenylamino]-pyrimidin-4-yl}-urea bis-hydrochloride Salt] | 12 to 100% | 67 to 100% | 27 to 100%
25 | CCN(CC)CCOc1ccc(Nc2cc(NC(=O)Nc3ccccc3Cl)ncn2)cc1 [Example 126, 1-(2-Chloro-phenyl)-3-{6-[4-(2-diethylamino-ethoxy)-phenylamino]-pyrimidin-4-yl}-urea] | 12 to 100% | 67 to 100% | 27 to 100%
26 | Cc1cccc(C)c1NC(=O)N(C)c1cc(Nc2cccc(Cl)c2)ncn1 [Example 127, 1-[6-(3-Chloro-phenylamino)-pyrimidin-4-yl]-3-(2,6-dimethyl-phenyl)-1-methyl-urea] | 12 to 100% | 67 to 100% | 27 to 100%
27 | O=C(Nc1cc(Nc2cccc(Cl)c2)ncn1)Nc1ccccc1Cl [Example 128, 3-(2-Chloro-phenyl)-1-[6-(3-chloro-phenylamino)-pyrimidin-4-yl]-urea] | 12 to 100% | 67 to 100% | 27 to 100%
28 | O=C(Nc1cc(Nc2cccc(Cl)c2)ncn1)Nc1ccccc1Br [Example 129, 1-(2-Bromo-phenyl)-3-[6-(3-chloro-phenylamino)-pyrimidin-4-yl]-urea] | 12 to 100% | 67 to 100% | 27 to 100%
29 | O=C(Nc1cc(Nc2cccc(Cl)c2)ncn1)Nc1ccccc1F [Example 130, 1-[6-(3-Chloro-phenylamino)-pyrimidin-4-yl]-3-(2-fluoro-phenyl)-urea] | 12 to 100% | 67 to 100% | 27 to 100%
